Results published in US8110570B2, “Modulators of acetyl-coenzyme A carboxylase and methods of use thereof” (Cropsolution, Inc., priority 2008, dated 2012).

Assays:
hACC1-CT = target: T1, hACC1-CT (Homo sapiens, UniProt Q13085); experiment: acetyl-CoA/malonyl-CoA isotope exchange assay, CT half-reaction; assay type: biochemical
T1 construct: PCR primers were designed for full-length hACC1 and hACC2 using GenBank submissions AY237919 and AJ575592, respectively; His tag (C); made in house; host or cells: baculovirus, Sf9 insect cells
Procedure: Overall ACC activity is comprised of two half-reactions, the BC reaction (the ATP-dependent carboxylation of biotin) and the CT reaction (the transfer of the carboxyl group from biotin to acetyl-CoA to form malonyl-CoA). Thus, it is of interest to localize the site of action of ACC inhibitors. To this end, representative compounds are tested in an acetyl-CoA/malonyl-CoA isotope exchange reaction which specifically measures the CT-half reaction. This assay is performed with slight modifications of published procedures (Gregolin et al., J Biol Chem, 1968, 243:4227-4235; Rendina et al., J Agric Food Chem, 1990, 38:1282-1287). Briefly, the reaction mixture (50 μL) contained 50 mM Hepes (pH 7.4), 20 mM K-citrate, 1.5 mM MgSO4, 4 mM malonyl-CoA, 1.67 mM acetyl-CoA, 0.34 mM [^14C]acetyl-CoA (about 60 mCi/mmol), 0.75 mg/mL BSA, and 1% (v/v) DMSO with or without inhibitor. Reactions are initiated by the addition of hACCl (0.3 μg) or hACC2 (0.15 μg) enzyme and incubated at 37° C. for 10 min. Reactions are stopped by addition of a 0.2M sodium arsenate solution containing 1U of phosphotransacetylase (13.5 μL) and incubation at room temperature for 30 min. […] The samples are then resuspended in water (200 μL), added to scintillation cocktail (3 mL), and counted in a scintillation counter to quantify radiolabel incorporated into malonyl-CoA. […]

[1] = tested on: hepatic fatty acid synthesis; experiment: In vivo inhibition of rat hepatic fatty acid synthesis; conditions: oral
Procedure: In vivo measurement of fatty acid synthesis inhibition in mammals. Incorporation of [2-^14C]acetate into saponifiable lipids in the livers of mammals (e.g. Sprague Dawley rats, Charles River Laboratories, Boston, Mass. or Harlan Laboratories, Indianapolis, Ind.) can be measured as described previously (Harwood Jr. H. J. et al., J Biol Chem, 39: 37099-37111 (2003)). For example, animals given food and water ad libitum are treated orally at volume of 1.0 ml/200 g of body weight with either an aqueous solution containing 0.5% methyl cellulose (vehicle) or an aqueous solution containing 0.5% methyl cellulose containing test compound. One hour after compound administration, animals receive an intraperitoneal injection of [2-^14C]acetate (0.02 mL, 1 mCi/mL; 50 mCi/mmol. One hour after radiolabel administration, animals are sacrificed by CO2 asphyxiation, and two liver pieces (about 0.75 g each) are removed and saponified at 70° C. for 120 min in 2.5 M NaOH (1.5 mL). After saponification, absolute EtOH (2.5 mL) is added to each sample and the solutions are mixed and allowed to stand overnight. Petroleum ether (4.8 mL) is then added to each sample, and after vigorous shaking (2 min) the mixtures are centrifuged at 1000×g (5 min). The petroleum ether layer containing the nonsaponifiable lipids is removed and discarded. The remaining aqueous layer is acidified (pH<2) by addition of 12 M HCl (0.6 mL) and extracted two times with petroleum ether (4.8 mL). The pooled organic fractions are transferred to liquid scintillation vials, dried under nitrogen, dissolved in Aquasol scintillation fluid (7 ml), and radioactivity is quantified by liquid scintillation counting. Inhibition of fatty acid synthesis by the test compound is expressed as a relative percent inhibition of measured incorporation of [2-^14C]acetate into saponifiable lipids during the interval between [2-^14C]acetate injection and CO2 asphyxiation in animals receiving test compound, compared to control animals receiving only the vehicle.
Compounds of the present invention, and salts thereof, were evaluated for inhibition of fatty acid synthesis as described above.

[2] = tested on: beta-hydroxybutyrate levels; experiment: In vivo elevation of rat serum beta-hydroxybutyrate levels; conditions: orally at 30 mg/Kg
Excerpt: Determination of blood levels of ketone bodies after oral dosing of ACC inhibitors. Compounds of this invention, and salts thereof, can be evaluated for their potential as treatments for diseases caused by reduced neuronal metabolism by assessing their effects on plasma levels of beta-hydroxybutyrate. Inhibition of ACC leads to increased rates of fatty acid oxidation and therefore production of beta-hydroxybutyrate. Rats (Sprague Rats (Sprague Dawley, Charles River Laboratories, Boston, Mass.) are acclimated for at least 4 days prior to dosing. For example, animals given food and water ad libitum are treated at volume of 1.0 mL/200 g of body weight with either an aqueous solution containing 0.5% methyl cellulose (vehicle) or an aqueous solution containing 0.5% methyl cellulose containing test compound. At various times after compound administration whole blood is collected from a jugular vein catheter into lithium heparin coated tubes, mixed gently, kept on ice and centrifuged (2500×g, 15 minutes at 4° C.) within 1 hour of collection. The isolated plasma is kept frozen at −20° C. until further processing. Plasma levels of beta-hydroxybutyrate are determined using a beta-hydroxybutyrate detection kit following the manufacturer's directions (StanBio Laboratory, Boerne, Tex.). Compounds of the present invention, and salts thereof, were assessed for their ability to increase serum beta-hydroxybutyrate levels as described above.

Row | Structure (SMILES) | IC50 (hACC1-CT) | Percent Inhibition at 10 mg/Kg [1] | Percent Inhibition at 30 mg/Kg [1] | Average beta-Hydroxybutyrate Concentration ([2]; 15 min) | Average beta-Hydroxybutyrate Concentration ([2]; 30 min) | Average beta-Hydroxybutyrate Concentration ([2]; 60 min) | Average beta-Hydroxybutyrate Concentration ([2]; 120 min) | Average beta-Hydroxybutyrate Concentration ([2]; 240 min)
1 | COc1cc(C(=O)N2CCC3(CC2)NC(=O)c2cc(Br)ccc2O3)nc2c(OC)cccc12 [Compound 2, 6-Bromo-1′-[(4,8-dimethoxyquinoline-2-yl)carbonyl]spiro[2H-1,3-benzoxazine-2,4′-piperidine]-4(3H)-one] | 100 nM | – | – | – | – | – | – | –
2 | COc1cc(C(=O)N2CCC3(CC2)NC(=O)c2cc(OC(C)C)ccc2O3)nc2c(OC)cccc12 [Compound 169] | – | 30% | 60% | 0.149 mM | 0.201 mM | 0.135 mM | 0.126 mM | 0.118 mM
3 | COc1ccc2c(c1)C(=O)NC1(CCN(C(=O)c3cc(OC)c4cccc(OC)c4n3)CC1)O2 [Compound 150] | – | 20% | 54% | 0.160 mM | 0.214 mM | 0.147 mM | 0.140 mM | 0.102 mM
